Experimental data reported in patent US6511453B2, “Device for controlled anaesthesia, analgesia and/or sedation” (priority 1997, dated 2003).

How the values were obtained:
[1] = Loading of emulsions with xenon (xenon uptake, stability); type: physicochemical; details: 10% by weight fatty emulsion saturated with xenon
Procedure: The loading capacity of the abovementioned perfluorocarbon preparation is considerable. Xenon loads of e.g. 1 to 10 ml/ml have been achieved by the simplest means. For example, these preparations can be loaded with inert gas simply by having the gas passed through them.
Thus, even by the simplest means, xenon can be dissolved or dispersed in concentrations of 0.2 to 10 ml or more per ml of fatty emulsion (concentrations relate to standard conditions, i.e. 20° C. and normal pressure). The xenon concentration depends on a large number of factors, especially the concentration of the fat. As a rule the preparations will be “loaded” with xenon up to the saturation limit. However, it is also possible for very small concentrations to be present, provided, for example, that a pharmacological activity can still be observed on intravenous administration. In the case of a 10% fatty emulsion, it is easily possible to reach xenon concentrations of 0.3 to 2 ml of xenon per ml of fatty emulsion. It is of course also possible to reach higher values, e.g. 3, 4, 5, 6 or 7 ml of xenon per ml of fatty emulsion. These fatty emulsions are sufficiently stable, at least in gas-tight containers, for the xenon not to be released as a gas over conventional storage periods. […]

patient = test: Intravenous infusion of xenon-containing emulsion in a patient; details: in vivo
Procedure: To achieve a subanaesthetic action, the xenon load in the medicinal preparation need only be about 0.2 to 0.3 ml of xenon per ml of emulsion. This means that an analgesic and/or sedative action is assured for preparations with a xenon content of at least 0.2 ml/ml emulsion. An anti-inflammatory action is already observed at 0.1 ml/ml emulsion. […] When working with a highly laden perfluorocarbon emulsion containing 2 to 4 ml of xenon per ml of emulsion, for example, 20 ml of this emulsion are infused over 30 sec, for example, in order to induce anaesthesia. An infusion rate of at least 7.5 ml/min is sufficient to maintain the anaesthesia. A total of 470 ml of emulsion would thus be used for a 1-hour operation. With a xenon content of 3 ml of xenon per ml of emulsion, this corresponds to a xenon volume of 1410 ml, i.e. a fraction of the xenon consumed in inhalation anaesthesia (based on a body weight of 85 kg, this would be a consumption of 16.6 ml per kg in one hour).

With `[Xe]` [xenon, Xenon] the “Xenon content at saturation” value [1] was “about 0.3 ml of xenon per ml of emulsion”, the “Xenon content at which an anti-inflammatory action is observed” value (patient) was 0.1 ml/ml emulsion and the “Xenon content that assures an analgesic and/or sedative action” value (patient) was “at least 0.2 ml/ml emulsion”.
